The experiment concerns the target T1, rat B1R (bradykinin receptor 1) (Rattus norvegicus, UniProt P97583).
T1 construct: expressed in transfected cells; host or cells: CHO K1 cells
T1 sequence (P97583 1-337): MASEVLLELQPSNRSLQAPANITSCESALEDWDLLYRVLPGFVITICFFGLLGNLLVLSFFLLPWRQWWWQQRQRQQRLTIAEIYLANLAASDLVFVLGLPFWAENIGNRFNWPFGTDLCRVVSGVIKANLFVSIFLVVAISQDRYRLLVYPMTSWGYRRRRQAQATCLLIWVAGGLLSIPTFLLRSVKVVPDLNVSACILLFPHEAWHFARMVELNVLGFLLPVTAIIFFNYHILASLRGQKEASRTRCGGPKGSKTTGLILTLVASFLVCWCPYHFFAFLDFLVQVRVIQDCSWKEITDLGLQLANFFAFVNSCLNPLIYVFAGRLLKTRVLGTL
Kind of experiment: FLIPR Ca2+ assay (Fluo-4) on CHO K1 cells stably transfected with the B1R gene of the rat (rB1R cells): % inhibition at 10 μM / IC50, agonist Des-Arg9-bradykinin. Particulars: for inhibition at 10 µM: CHO-K1, rat B1R. The class given is cell-based. An outline of the steps: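 Using a two-addition FLIPR protocol, compound (10 μM for % values; concentration series for IC50) was preincubated 10–20 min with Fluo-4-loaded B1R-expressing CHO K1 cells before EC80 agonist challenge. Suppression of Ca2+ inflow, read as peak fluorescence, is expressed relative to maximum achievable inhibition; duplicate/triplicate, ≥2 independent experiments.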

This note sets out measurements from patent US8455475B2 (Gruenenthal GmbH, priority 2009, dated 2013).

Take `Cn1nc(C(C)(C)C)cc1C(=O)N1CCC2(CCN(C(=O)c3ccc4c(c3)C(NC(=O)c3ccccc3Cl)CC4)C2)CC1` (stereo not drawn) [IND_CC-578, N-[6-[8-(5-tert-Butyl-2-methyl-2H-pyrazole-3-carbonyl)-2,8-diazaspiro-[4.5]decane-2-carbonyl]-2,3-dihydro-1H-inden-1-yl]-2-chloro-benzamide]: the inhibition (commonly the relative decrease from the control value, in per cent) at 10 µM came out at 79%.
Take `O=C(NC1CCc2ccc(C(=O)N3CCC4(CCN(Cc5ccc(F)cc5F)CC4)CC3)cc21)c1cc(C(F)(F)F)ccc1Cl` (stereo not drawn) [IND_CC-647, 2-Chloro-N-[6-[9-[(2,4-difluoro-phenyl)-methyl]-3,9-diazaspiro[5.5]undecane-3-carbonyl]-2,3-dihydro-1H-inden-1-yl]-5-(trifluoromethyl)-benzamide]: the inhibition at 10 µM is 73%.
With `Cn1nc(C(C)(C)C)cc1C(=O)N1CCC2(CCN(C(=O)c3ccc4c(c3)C(N(C(=O)c3ccccc3Cl)C3CC3)CC4)C2)CC1` (stereo not drawn) [IND_CC-607, N-[6-[8-(5-tert-Butyl-2-methyl-2H-pyrazole-3-carbonyl)-2,8-diazaspiro[4.5]decane-2-carbonyl]-2,3-dihydro-1H-inden-1-yl]-2-chloro-N-cyclopropyl-benzamide], the inhibition at 10 µM is 67%.
The same measure, in the same setting: the figure for `Cc1ccccc1C(=O)N(C)C1CCc2ccc(C(=O)N3CCC4(CC3)CCN(c3ccncc3)CC4)cc21` (stereo not drawn) [IND_CC-345, N,2-Dimethyl-N-[6-(9-pyridin-4-yl-3,9-diazaspiro[5.5]undecane-3-carbonyl)-2,3-dihydro-1H-inden-1-yl]-benzamide] is 105%.
Still for that read-out and setting: under `N#Cc1ccccc1CN1CCC2(CC1)CCN(C(=O)c1ccc3c(c1)C(NC(=O)c1cccc(Cl)c1Cl)CC3)C2` (stereo not drawn) [IND_CC-724, 2,3-Dichloro-N-[6-[8-[(2-cyano-phenyl)-methyl]-2,8-diazaspiro[4.5]decane-2-carbonyl]-2,3-dihydro-1H-inden-1-yl]-benzamide] stands 86%; under `Cn1nnc2cc(CN3CCC4(CC3)CCN(C(=O)c3ccc5c(c3)C(NC(=O)c3cc(Cl)ccc3F)CC5)C4)ccc21` (stereo not drawn) [IND_CC-673, 5-Chloro-2-fluoro-N-[6-[8-[(1-methyl-1H-benzotriazol-5-yl)-methyl]-2,8-diazaspiro[4.5]decane-2-carbonyl]-2,3-dihydro-1H-inden-1-yl]-benzamide], 67%.
Same read-out and setting: the figure for `Cc1noc(C)c1CN1CCC2(CC1)CCN(C(=O)c1ccc3c(c1)C(NC(=O)c1cc(C(F)(F)F)ccc1Cl)CC3)CC2` (stereo not drawn) [IND_CC-665, 2-Chloro-N-[6-[9-[(3,5-dimethyl-isoxazol-4-yl)-methyl]-3,9-diazaspiro[5.5]-undecane-3-carbonyl]-2,3-dihydro-1H-inden-1-yl]-5-(trifluoromethyl)benzamide] is 67%.
On to `O=C(NC1CCc2ccc(C(=O)N3CCC4(CCN(c5ccncc5)CC4)C3)cc21)c1c(F)cccc1F` (stereo not drawn) [IND_CC-386, 2,6-Difluoro-N-[6-(8-pyridin-4-yl-2,8-diazaspiro[4.5]decane-2-carbonyl)-2,3-dihydro-1H-inden-1-yl]-benzamide], for which the inhibition at 10 µM was 104%.
Consider `CN(C(=O)c1ccc(C(F)(F)F)cn1)C1CCc2ccc(C(=O)N3CCC4(CC3)CCN(c3ccncc3)CC4)cc21` (stereo not drawn) [IND_CC-395, N-Methyl-N-[6-(9-pyridin-4-yl-3,9-diazaspiro[5.5]undecane-3-carbonyl)-2,3-dihydro-1H-inden-1-yl]-5-(trifluoromethyl)-pyridine-2-carboxylic acid amide], for which the inhibition at 10 µM came to 58%.
On the same count and under the same terms, under `Cc1cc(F)ccc1S(=O)(=O)N(C)C1CCc2ccc(C(=O)N3CCC4(CC3)CCN(c3ccncc3)CC4)cc21` (stereo not drawn) [IND_CC-326, 4-Fluoro-N,2-dimethyl-N-[6-(9-pyridin-4-yl-3,9-diazaspiro[5.5]undecane-3-carbonyl)-2,3-dihydro-1H-inden-1-yl]-benzenesulfonic acid amide] stands 100%.
For `CCn1cc(CN2CCC3(CC2)CCN(C(=O)c2ccc4c(c2)C(NC(=O)c2c(F)cccc2Cl)CC4)C3)c(C)n1` (stereo not drawn) [IND_CC-772, 2-Chloro-N-[6-[8-[(1-ethyl-3-methyl-1H-pyrazol-4-yl)-methyl]-2,8-diazaspiro-[4.5]decane-2-carbonyl]-2,3-dihydro-1H-inden-1-yl]-6-fluoro-benzamide], the inhibition at 10 µM is 52%.
Still for that read-out and setting: under `CC1(C)CC(NS(=O)(=O)c2ccc(C(F)(F)F)cc2Cl)c2cc(C(=O)N3CCC4(CC3)CCN(c3ccncc3)CC4)ccc21` (stereo not drawn) [IND_CC-331, 2-Chloro-N-[3,3-dimethyl-6-(3-pyridin-4-yl-3,9-diazaspiro[5.5]undecane-9-carbonyl)-1,2-dihydro-inden-1-yl]-4-(trifluoromethyl)-benzenesulfonic acid amide] stands 94%.
On the same count and under the same terms, the figure for `Cn1nc(C(C)(C)C)cc1C(=O)N1CCC2(CCN(C(=O)c3ccc4c(c3)C(NC(=O)c3ccccc3Cl)CC4)CC2)CC1` (stereo not drawn) [IND_CC-601, N-[6-[9-(5-tert-Butyl-2-methyl-2H-pyrazole-3-carbonyl)-3,9-diazaspiro-[5.5]undecane-3-carbonyl]-2,3-dihydro-1H-inden-1-yl]-2-chloro-benzamide] is 77%.
Take `CN(C(=O)c1ccccc1Cl)C1CCc2ccc(C(=O)N3CCC4(CCN(Cc5ccc(F)cc5F)CC4)C3)cc21` (stereo not drawn) [IND_CC-551, 2-Chloro-N-[6-[8-[(2,4-difluoro-phenyl)-methyl]-2,8-diazaspiro[4.5]decane-2-carbonyl]-2,3-dihydro-1H-inden-1-yl]-N-methyl-benzamide]: the inhibition at 10 µM came to 55%.
On the same count and under the same terms, the figure for `O=C(NC1CCc2ccc(CC(=O)N3CCC4(CCN(CC5CCCCC5)CC4)C3)cc21)c1ccccc1Cl` (stereo not drawn) [IND_CC-807, 2-Chloro-N-[6-[2-[8-(cyclohexyl-methyl)-3,8-diazaspiro[4.5]decan-3-yl]-2-oxo-ethyl]-2,3-dihydro-1H-inden-1-yl]-benzamide] is 53%.
For the compound “2-Chloro-N-[6-[8-[(2-chloro-4-fluoro-phenyl)-methyl]-2,8-diazaspiro-[4.5]decane-2-carbonyl]-2,3-dihydro-1H-inden-1-yl]-6-fluoro-benzamide [IND_CC-741]”, the “% Inhibition (rat B1R) at 10 μM” value (rat B1R) came to 100%.
With `O=C(NC1CCc2ccc(C(=O)N3CCC4(CCN(C(=O)c5ccc(F)cc5Cl)CC4)C3)cc21)c1sccc1Cl` (stereo not drawn) [IND_CC-584, 3-Chloro-N-[6-[8-(2-chloro-4-fluoro-benzoyl)-2,8-diazaspiro[4.5]decane-2-carbonyl]-2,3-dihydro-1H-inden-1-yl]-thiophene-2-carboxylic acid amide], the inhibition at 10 µM came out at 63%.
In the case of `O=C(Nc1ccc(F)cc1F)N1CCC2(CC1)CCN(C(=O)c1ccc3c(c1)C(N(C(=O)c1ccccc1Cl)C1CC1)CC3)C2` (stereo not drawn) [IND_CC-719, 2-[3-[(2-Chloro-benzoyl)-cyclopropyl-amino]-2,3-dihydro-1H-indene-5-carbonyl]-N-(2,4-difluoro-phenyl)-2,8-diazaspiro[4.5]decane-8-carboxylic acid amide], the inhibition at 10 µM was found to be 59%.
Same read-out and setting: the figure for `O=C(NC1CCc2ccc(C(=O)N3CCC4(CCN(Cc5ccc(F)c(F)c5)CC4)C3)cc21)c1cc(C(F)(F)F)ccc1Cl` (stereo not drawn) [IND_CC-633, 2-Chloro-N-[6-[8-[(3,4-difluoro-phenyl)-methyl]-2,8-diazaspiro[4.5]decane-2-carbonyl]-2,3-dihydro-1H-inden-1-yl]-5-(trifluoromethyl)-benzamide] is 86%; for `COc1cc(C)c(C(=O)NC2CCc3ccc(C(=O)N4CCC5(CCN(C(=O)c6cc(C(C)(C)C)nn6C)CC5)C4)cc32)c(C)c1` (stereo not drawn) [IND_CC-580, N-[6-[8-(5-tert-Butyl-2-methyl-2H-pyrazole-3-carbonyl)-2,8-diazaspiro[4.5]decane-2-carbonyl]-2,3-dihydro-1H-inden-1-yl]-4-methoxy-2,6-dimethyl-benzamide] it is 81%.
On the same count and under the same terms, the figure for `Cn1cccc1CN1CCC2(CC1)CCN(C(=O)c1ccc3c(c1)C(NC(=O)c1cc(C(F)(F)F)ccc1Cl)CC3)CC2` (stereo not drawn) [IND_CC-643, 2-Chloro-N-[6-[9-[(1-methyl-1H-pyrrol-2-yl)-methyl]-3,9-diazaspiro[5.5]-undecane-3-carbonyl]-2,3-dihydro-1H-inden-1-yl]-5-(trifluoromethyl)benzamide] is 78%; for `N#Cc1cc(S(=O)(=O)N2CCC3(CCN(C(=O)c4ccc5c(c4)C(N(C(=O)c4ccccc4Cl)C4CC4)CC5)C3)CC2)ccc1F` (stereo not drawn) [IND_CC-617, 2-Chloro-N-[6-[8-[(3-cyano-4-fluoro-phenyl)sulfonyl]-2,8-diazaspiro[4.5]-decane-2-carbonyl]-2,3-dihydro-1H-inden-1-yl]-N-cyclopropyl-benzamide] it is 67%.
Still for that read-out and setting: under `CC1(C)CC(NS(=O)(=O)c2c(Cl)cccc2Cl)c2cc(C(=O)N3CCC4(CC3)CCN(c3ccncc3)CC4)ccc21` (stereo not drawn) [IND_CC-332, 2,6-Dichloro-N-[3,3-dimethyl-6-(3-pyridin-4-yl-3,9-diazaspiro[5.5]undecane-9-carbonyl)-1,2-dihydro-inden-1-yl]-benzenesulfonic acid amide] stands 97%; under `N#Cc1cccc(CN2CCC3(CC2)CCN(C(=O)c2ccc4c(c2)C(NC(=O)c2cc(C(F)(F)F)ccc2Cl)CC4)CC3)c1` (stereo not drawn) [IND_CC-667, 2-Chloro-N-[6-[9-[(3-cyano-phenyl)-methyl]-3,9-diazaspiro[5.5]undecane-3-carbonyl]-2,3-dihydro-1H-inden-1-yl]-5-(trifluoromethyl)-benzamide], 85%.
